Values after ≈ are worked out from the molar mass of the structure shown. Where two headings read alike, the source gives them in different places.
Assays:
[1] = test system: Vero Cells; assay: Cytotoxicity, Vero cells; format: cell-based
[2] = test system: Candida albicans ATTC 90028; assay: Antifungal susceptibility testing, Candida albicans; format: cell-based
Experimental: (§1) Using standard susceptibility tests, the compounds of the invention were determined to be active against MRSA, C. neoformans and several other bacteria, fungi and protozoa. More specifically, the antibacterial and antifungal testing was carried out in the following manner. Cryptococcus neoformans ATCC 90113 and MRSA were obtained from the American Type Culture Collection (Manassas. Va.). Several others including Candida albicans ATTC 90028, Aspergillus fumigatus ATCC 90906 and Mycobacterium intracellulare (M. intracellulare) ATCC 23086 were also procured. Susceptibility testing was performed using a modified version of the National Committee for Clinical Laboratory Standards method. M. intracellulare was tested using a modified method of Franzblau, et al., J. Clin. Microbiol., 1998, 36, 362-366. DMSO solutions of samples were serially diluted in saline, and transferred in duplicate to 96 well microplates. Microbial suspensions were diluted in the broth to afford desired colony forming units/mL according to the 0.5 McFarland Standard [C. Albicans: either Saboraud Dextrose broth (SDB) or RPMI 1640, C. neoformans: SDB, A fumigatus: either YM broth (for MICS) or RPMI-1640+5% Alamar Blue.] After adding microbial cultures to the sampled afforded a final volume of 200 μL and final test concentration starting with 20 μg/mL, plates were read prior to and after final incubation using either fluorescence at 544ex/590em (M intracellulare, A. fumigatus) using the Polarstar galaxy reader (Biotek Instruments, Vermont). Growth (saline only), solvent and blank (media only) controls were included on each test plate. Drug controls [Ciprofloxacin (ICN Biomedicals, Ohio) for bacteria and Amphotericin B (ICN Biomedicals, Ohio) for fungi] were included in each assay. Percent growth was calculated and plotted versus test concentration to afford IC50 (sample concentration that affords 50% inhibition or growth of the organism). The minimum inhibitory concentration (MIC) was determined by visually inspecting the plate, and is defined as the lowest test concentration that allows no detectable growth (for Almar Blue assays, no color change from blue to pink).

[3] = test system: MRSA; assay: Antibacterial susceptibility testing, MRSA; format: cell-based, methicillin resistant Staphylococcus aureus; details: for MRS IC50 / MRS MFC / MRS MIC: Table 1
Experimental: as §1

[4] = test system: Cryptococcus neoformans ATCC 90113; assay: Antifungal susceptibility testing, Cryptococcus neoformans; format: cell-based
Experimental: as §1

[5] = test system: Aspergillus fumigatus ATCC 90906; assay: Antifungal susceptibility testing, Aspergillus fumigatus; format: cell-based
Experimental: as §1

SMILES	Ca IC50 ([2]; Table 1)	Ca MFC ([2]; Table 1)	Ca MIC ([2]; Table 1)	MRS IC50 [3]	MRS MFC [3]	MRS MIC [3]	Cn IC50 ([4]; Table 1)	Cn MFC ([4]; Table 1)	Cn MIC ([4]; Table 1)	A fu IC50 ([5]; Table 1, Aspergillus fumigatus)	A fu MFC ([5]; Table 1, Aspergillus fumigatus)	A fu MIC ([5]; Table 1, Aspergillus fumigatus)	TC50 Vero Cells ([1]; Table 2) [µg/mL]	Ca IC50 ([2]; Table 2)	Ca MFC ([2]; Table 2)	Ca MIC ([2]; Table 2)	Cn IC50 ([4]; Table 2)	Cn MFC ([4]; Table 2)	Cn MIC ([4]; Table 2)	A fu IC50 ([5]; Table 2, Aspergillus fumigatus)	further results
FC(F)(F)c1cccc(Sc2cc3ccccc3[n+](CCCCCc3ccccc3)c2)c1.[I-] [XYZ-IV-54]	6.0 µg/mL	— ((-) = >20 μg/mL)	10 µg/mL	0.85 µg/mL	10 µg/mL	2.5 µg/mL	1.5 µg/mL	20 µg/mL	2.5 µg/mL	1.5 µg/mL	— ((-) = >20 μg/mL)	5.0 µg/mL									TC50 Vero Cells ([1]; Table 1): NC (NC = Not toxic at 10 μg/mL)
Clc1ccc2c(c1)[nH]c1c[n+](CCCCCC3CCCCC3)c3ccccc3c12.[I-] [JRE-3-10-1]																					TC50 Vero Cells ([1]; Table 3): 9.3 µg/mL; Ca IC50 ([2]; Table 3): >20 µg/mL; Ca MFC ([2]; Table 3): — ((-) = >20 μg/mL); Ca MIC ([2]; Table 3): — ((-) = >20 μg/mL); MRSA IC50 ([3]; Table 3): 5.0 µg/mL; MRSA MFC ([3]; Table 3): — ((-) = >20 μg/mL); MRSA MIC ([3]; Table 3): 25 µg/mL; Cn IC50 ([4]; Table 3): >20 µg/mL; Cn MFC ([4]; Table 3): — ((-) = >20 μg/mL); Cn MIC ([4]; Table 3): — ((-) = >20 μg/mL); A fu IC50 ([5]; Table 3, Aspergillus fumigatus): >20 µg/mL
C[n+]1cc(N(CCCCCC2CCCCC2)c2ccc(OC(F)(F)F)cc2)cc2ccccc21.[I-] [JRE-3-99-1]													>10	0.45 µg/mL	10 µg/mL	1.3 µg/mL	0.70 µg/mL	1.3 µg/mL	1.3 µg/mL	0.95 µg/mL	MRSA IC50 ([3]; Table 2): 0.65 µg/mL; MRSA MFC ([3]; Table 2): 1.3 µg/mL; MRSA MIC ([3]; Table 2): 1.3 µg/mL; A fu MFC [5]: 2.5 µg/mL; A fu MIC [5]: 2.5 µg/mL
FC(F)(F)c1ccc2[nH]c3c[n+](CCCCCC4CCCCC4)c4ccccc4c3c2c1.[I-] [JRE-3-4-1]																					TC50 Vero Cells ([1]; Table 3): 10.5 µg/mL; Ca IC50 ([2]; Table 3): 2.0 µg/mL; Ca MFC ([2]; Table 3): 13 µg/mL; Ca MIC ([2]; Table 3): 6.3 µg/mL; MRSA IC50 ([3]; Table 3): 1.0 µg/mL; MRSA MFC ([3]; Table 3): 3.1 µg/mL; MRSA MIC ([3]; Table 3): 1.6 µg/mL; Cn IC50 ([4]; Table 3): 9.0 µg/mL; Cn MFC ([4]; Table 3): — ((-) = >20 μg/mL); Cn MIC ([4]; Table 3): — ((-) = >20 μg/mL); A fu IC50 ([5]; Table 3, Aspergillus fumigatus): 10 µg/mL
C[C@@H]1[C@H](O)[C@@H](C)/C=C/C=C/C=C/C=C/C=C/C=C/C=C/[C@H](O[C@@H]2O[C@H](C)[C@@H](O)[C@H](N)[C@@H]2O)C[C@@H]2O[C@](O)(C[C@@H](O)C[C@@H](O)[C@H](O)CC[C@@H](O)C[C@@H](O)CC(=O)O[C@H]1C)C[C@H](O)[C@H]2C(=O)O [Amph B, Amphotericin B, reference compound]	0.25 µg/mL	1.3 µg/mL	0.63 µg/mL				0.85 µg/mL	2.5 µg/mL	2.5 µg/mL	0.90 µg/mL			6.5 (≈ 7.03 µM)	0.25 µg/mL	1.3 µg/mL	0.63 µg/mL	0.85 µg/mL	2.5 µg/mL	2.5 µg/mL	0.90 µg/mL	TC50 Vero Cells ([1]; Table 1): 6.5 µg/mL (≈ 7.03 µM); TC50 Vero Cells ([1]; Table 3): 6.5 µg/mL (≈ 7.03 µM); Ca IC50 ([2]; Table 3): 0.25 µg/mL; Ca MFC ([2]; Table 3): 1.3 µg/mL; Ca MIC ([2]; Table 3): 0.63 µg/mL; Cn IC50 ([4]; Table 3): 0.85 µg/mL; Cn MFC ([4]; Table 3): 2.5 µg/mL; Cn MIC ([4]; Table 3): 2.5 µg/mL; A fu MFC [5]: 2.5 µg/mL; A fu MIC [5]: 2.5 µg/mL; A fu IC50 ([5]; Table 3, Aspergillus fumigatus): 0.90 µg/mL
C[n+]1cc(N(CCCCCC2CCCCC2)c2ccc(Cl)cc2)cc2ccccc21.[I-] [JRE-4-9-1]													10	0.45 µg/mL	5.0 µg/mL	1.3 µg/mL	0.40 µg/mL	2.5 µg/mL	0.63 µg/mL	0.80 µg/mL	MRSA IC50 ([3]; Table 2): 0.40 µg/mL; MRSA MFC ([3]; Table 2): 0.63 µg/mL; MRSA MIC ([3]; Table 2): 0.63 µg/mL; A fu MFC [5]: 10 µg/mL; A fu MIC [5]: 1.3 µg/mL
Clc1ccc(Nc2cc3ccccc3[n+](CCCCCC3CCCCC3)c2)cc1.[I-] [JRE-2-83-1]													12.5	2.0 µg/mL	— ((-) = >20 μg/mL)	25 µg/mL	1.0 µg/mL	— ((-) = >20 μg/mL)	1.6 µg/mL	— ((-) = >20 μg/mL)	MRSA IC50 ([3]; Table 2): 0.50 µg/mL; MRSA MFC ([3]; Table 2): 1.6 µg/mL; MRSA MIC ([3]; Table 2): 0.78 µg/mL
C[n+]1cc(N(CCCCCC2CCCCC2)c2cccc(Cl)c2)cc2ccccc21.[I-] [JRE-4-3-1]													>10	0.90 µg/mL	10 µg/mL	2.5 µg/mL	0.85 µg/mL	5.0 µg/mL	1.3 µg/mL	1.0 µg/mL	MRSA IC50 ([3]; Table 2): 0.80 µg/mL; MRSA MFC ([3]; Table 2): 2.5 µg/mL; MRSA MIC ([3]; Table 2): 1.3 µg/mL; A fu MFC [5]: 10 µg/mL; A fu MIC [5]: 2.5 µg/mL
FC(F)(F)c1ccc(Sc2cc3ccccc3[n+](CCCCCc3ccccc3)c2)cc1.[I-] [XYZ-III-66]	5.5 µg/mL	— ((-) = >20 μg/mL)	10 µg/mL				2.0 µg/mL	10 µg/mL	5.0 µg/mL	3.0 µg/mL	— ((-) = >20 μg/mL)	5.0 µg/mL									TC50 Vero Cells ([1]; Table 1): NC (NC = Not toxic at 10 μg/mL)
O=C(O)c1cn(C2CC2)c2cc(N3CCNCC3)c(F)cc2c1=O [Cipro, Ciprofloxacin, reference compound]																					TC50 Vero Cells ([1]; Table 3): >10 µg/mL; IC50 ([3]; Staphylococcus aureus, Table 3, read-out: MRSA IC50): 0.09 µg/mL (≈ 0.272 µM); MFC ([3]; Staphylococcus aureus, Table 3, read-out: MRSA MFC): > 20 µg/mL; MIC ([3]; Staphylococcus aureus, Table 3, read-out: MRSA MIC): 0.5 µg/mL (≈ 1.51 µM)
Brc1ccc(Sc2cc3ccccc3[n+](CCCCCc3ccccc3)c2)cc1.[I-] [XYZ-III-89]	15 µg/mL	— ((-) = >20 μg/mL)	— ((-) = >20 μg/mL)	1.5 µg/mL	10 µg/mL	2.5 µg/mL	1.0 µg/mL	10 µg/mL	2.5 µg/mL	1.5 µg/mL	— ((-) = >20 μg/mL)	2.5 µg/mL									
C[n+]1cc(Nc2cccc(Cl)c2)cc2ccccc21.[I-] [JRE-2-81-1]														— ((-) = >20 μg/mL)	— ((-) = >20 μg/mL)	— ((-) = >20 μg/mL)	— ((-) = >20 μg/mL)	— ((-) = >20 μg/mL)	— ((-) = >20 μg/mL)	— ((-) = >20 μg/mL)	MRSA IC50 ([3]; Table 2): — ((-) = >20 μg/mL); MRSA MFC ([3]; Table 2): — ((-) = >20 μg/mL); MRSA MIC ([3]; Table 2): — ((-) = >20 μg/mL)
[I-].[O-][S+](c1cc2ccccc2[n+](CCCCCc2ccccc2)c1)c1ccccc1C(F)(F)F (stereo not drawn) [XYZ-IV-90]	15 µg/mL	— ((-) = >20 μg/mL)	— ((-) = >20 μg/mL)	0.25 µg/mL	10 µg/mL	0.63 µg/mL	5.5 µg/mL	— ((-) = >20 μg/mL)	20 µg/mL	— ((-) = >20 μg/mL)	— ((-) = >20 μg/mL)	— ((-) = >20 μg/mL)									
C[n+]1cc(Sc2ccccc2)cc2ccccc21.[I-] [XYZ-III-53]	— ((-) = >20 μg/mL)	— ((-) = >20 μg/mL)	— ((-) = >20 μg/mL)	— ((-) = >20 μg/mL)	— ((-) = >20 μg/mL)	— ((-) = >20 μg/mL)	— ((-) = >20 μg/mL)	— ((-) = >20 μg/mL)	— ((-) = >20 μg/mL)	— ((-) = >20 μg/mL)	— ((-) = >20 μg/mL)	— ((-) = >20 μg/mL)									
Clc1ccccc1Sc1cc2ccccc2[n+](CCCCCc2ccccc2)c1.[I-] [XYZ-III-74]	— ((-) = >20 μg/mL)	— ((-) = >20 μg/mL)	— ((-) = >20 μg/mL)	1.0 µg/mL	10 µg/mL	2.5 µg/mL	2.0 µg/mL	20 µg/mL	5.0 µg/mL	0.70 µg/mL	— ((-) = >20 μg/mL)	2.5 µg/mL									
